Here are results for two molecules from paper PMC7410094 (ACS chemical biology, 2020).

One test deals with β2AR (Homo sapiens, UniProt P07550). The test can be described thus: radioligand binding assay. The note with it: labelled compound; antagonist; DDM or MTG micelles at CMC+0.2 wt%.
The next test deals with MelBEC (Escherichia coli, UniProt P02921). The test can be described thus: Trp to dansyl FRET. Format: binding. The note with it: MTG-E13 micelles (response lost in DDM); active site.
Another test has as its target MelBSt (Salmonella enterica, UniProt P30878). As to the kind of experiment: Trp to dansyl FRET. Format: binding. The note with it: DDM or MTG-E13 micelles; active site.

Chain of MelBEC (P02921 2-473): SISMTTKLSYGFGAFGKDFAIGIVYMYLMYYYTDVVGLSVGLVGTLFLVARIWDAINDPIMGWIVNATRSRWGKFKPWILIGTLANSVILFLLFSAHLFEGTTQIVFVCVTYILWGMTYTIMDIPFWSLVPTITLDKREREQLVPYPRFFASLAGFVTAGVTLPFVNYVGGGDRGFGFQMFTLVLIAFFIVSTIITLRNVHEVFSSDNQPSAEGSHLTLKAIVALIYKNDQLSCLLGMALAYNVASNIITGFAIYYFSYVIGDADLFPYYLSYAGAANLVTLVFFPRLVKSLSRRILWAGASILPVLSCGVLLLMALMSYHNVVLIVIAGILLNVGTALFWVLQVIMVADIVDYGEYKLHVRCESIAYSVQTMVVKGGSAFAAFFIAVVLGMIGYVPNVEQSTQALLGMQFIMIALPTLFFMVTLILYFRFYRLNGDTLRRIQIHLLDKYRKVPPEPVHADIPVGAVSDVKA
Chain of β2AR (P07550 whole entry): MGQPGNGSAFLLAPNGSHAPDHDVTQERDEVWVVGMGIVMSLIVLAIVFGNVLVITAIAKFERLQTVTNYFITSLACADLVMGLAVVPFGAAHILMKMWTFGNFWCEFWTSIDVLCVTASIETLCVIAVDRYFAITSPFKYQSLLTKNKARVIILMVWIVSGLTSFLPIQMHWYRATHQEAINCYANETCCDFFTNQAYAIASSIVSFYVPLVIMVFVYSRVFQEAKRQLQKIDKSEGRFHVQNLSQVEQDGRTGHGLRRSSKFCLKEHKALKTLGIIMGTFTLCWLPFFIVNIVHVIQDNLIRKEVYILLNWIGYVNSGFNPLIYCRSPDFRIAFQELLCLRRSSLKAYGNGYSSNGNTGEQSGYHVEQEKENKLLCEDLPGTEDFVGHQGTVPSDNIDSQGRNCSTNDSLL
Chain of MelBSt (P30878 whole entry): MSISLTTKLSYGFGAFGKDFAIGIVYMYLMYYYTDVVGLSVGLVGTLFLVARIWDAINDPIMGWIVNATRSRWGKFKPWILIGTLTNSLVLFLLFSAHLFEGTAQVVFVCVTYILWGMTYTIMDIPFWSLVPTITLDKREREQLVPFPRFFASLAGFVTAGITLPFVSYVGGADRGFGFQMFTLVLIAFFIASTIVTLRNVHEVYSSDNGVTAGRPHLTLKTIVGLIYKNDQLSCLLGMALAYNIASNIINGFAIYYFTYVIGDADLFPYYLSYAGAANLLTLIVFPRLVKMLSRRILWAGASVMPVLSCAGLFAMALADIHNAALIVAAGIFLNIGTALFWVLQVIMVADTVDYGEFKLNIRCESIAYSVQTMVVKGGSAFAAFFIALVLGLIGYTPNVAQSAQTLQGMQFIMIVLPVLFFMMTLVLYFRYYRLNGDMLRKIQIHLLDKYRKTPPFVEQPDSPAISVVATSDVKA

Turning to `CCCc1ccccc1OCC(O)CNC(C)C` (stereo not drawn) [[^3H]-dihydroalprenolol], the radioligand binding assay entry on β2AR was “the MTGs led to [^3H]-DHA-binding capability of the receptor comparable to DDM”. `CN(C)c1cccc2c(S(=O)(=O)NCCS[C@@H]3O[C@H](CO)[C@H](O)[C@H](O)[C@H]3O)cccc12` [D^2G, 2’-(N-dansyl)aminoalkyl-1-thio-β-D-galactopyranoside]: the “Trp to dansyl FRET” value at MelBEC is “MTG-E13, was effective at preserving the functionality of this less stable MelB homologue”; at MelBSt it was “DDM-solubilized MelBSt showed initial increase and subsequent decrease in the fluorescence signal”.
